According to patent EP4703354A1, “COMPOUND AS CCR6 ANTAGONIST, AND PHARMACEUTICAL COMPOSITION AND USE THEREOF” (Wuhan Createrna Science and Technology Co.,Ltd., priority 2023, dated 2024):
Read-outs that look alike come from different tables or passages of the source.

Key:
[1] = molecular target: T1, human CCR6 (Homo sapiens, UniProt P51684); experiment: human CCR6 calcium flux activity (FLIPR, HEK293 cells stably expressing human CCR6, CCL20 stimulation); format: cell-based; conditions: HEK293 cells stably expressing human CCR6, EC80 human MIP-3 alpha/CCL20; read-out: CCR6 inhibitory activity, IC50
T1 construct: expressed in transfected cells; host or cells: HEK293
T1 sequence (P51684 1-374): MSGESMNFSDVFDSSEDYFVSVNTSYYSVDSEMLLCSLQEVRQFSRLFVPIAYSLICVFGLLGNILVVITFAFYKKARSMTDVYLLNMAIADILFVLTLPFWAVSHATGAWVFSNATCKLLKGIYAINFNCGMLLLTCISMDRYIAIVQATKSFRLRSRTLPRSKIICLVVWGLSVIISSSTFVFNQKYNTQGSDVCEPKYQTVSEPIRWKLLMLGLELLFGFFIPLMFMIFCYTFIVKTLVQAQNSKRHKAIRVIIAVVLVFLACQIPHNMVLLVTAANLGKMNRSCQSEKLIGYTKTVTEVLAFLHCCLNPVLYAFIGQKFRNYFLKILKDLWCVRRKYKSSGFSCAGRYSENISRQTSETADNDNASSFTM
Procedure, shortened: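 Read-out is the RFUMax−RFUMin calcium signal (494/516 nm, 90 s) after EC80 CCL20 addition, fitted four-parameter for IC50. Before agonist, Fluo-4 Direct-loaded cells sat with compound 50 min at 37 °C plus 10 min at room temperature.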

[2] = in vitro liver microsome metabolic stability, human; format: in vitro ADME; conditions: Human liver microsomes, 37°C
Procedure, shortened: (§1)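 Test compound at 1 µM final (100 µM working solution diluted 1:100) incubated at 37°C with liver microsomes in pH 7.4 phosphate buffer with NADP/G6P/G6PDH/MgCl2 regenerating system; sampled 0–30 min, LC-MS/MS vs internal standard. T1/2 = 0.693/k from remaining-fraction decay.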

[3] = in vitro liver microsome metabolic stability, rat; format: in vitro ADME; conditions: Rat liver microsomes, 37°C
Procedure, shortened: as §1

[4] = in vitro liver microsome metabolic stability, mouse; format: in vitro ADME; conditions: Mouse liver microsomes, 37°C
Procedure: Preparation of working solutions for test compounds and standards: An appropriate amount of the compound was accurately weighed and dissolved in a corresponding volume of suitable solvent to prepare 1 mM stock solutions of the test compounds and standards. The stock solutions were then diluted with appropriate solvent to obtain 100 µM working solutions of the test compounds, ensuring that the DMSO content in the working solutions remained below 10%.
The internal standard compound testosterone (or tolbutamide) and its corresponding solvent, internal standard concentration (200 ng/mL), were selected based on the properties of the test compound.
• Solution A: 0.1 mol/L K2HPO4 (2.28 g K2HPO4·3H2O was dissolved in 100 mL of double-distilled water); • Solution B: 0.1 mol/L KH2PO4 (1.36 g KH2PO4 was dissolved in 100 mL of double-distilled water); • 80.2 mL of Solution A and 19.8 mL of Solution B were mixed thoroughly, and the pH was adjusted to 7.4.
37.5 mg of glycine was weighed, dissolved in 100 mL of ultrapure water, and adjusted to pH 8.0 with NaOH.
1.25 mg of glucose-6-phosphate dehydrogenase (400 U/mg) was weighed (the specific amount weighed was calculated based on the activity of the purchased glucose-6-phosphate dehydrogenase), dissolved in 1 mL of glycine buffer to a concentration of 500 U/mL, aliquoted into 20 µL per tube, and stored at -20°C for future use.
7.83 mg of NADP, 0.06 mL of D-glucose-6-phosphate (260 mg/mL), and 10.17 mg of MgCl2·6H2O were precisely weighed.
The mixture was dissolved in 1 mL of pure water. The cofactor ratio composition: NADP 10 mM, D-glucose-6-phosphate 60 mM, MgCl2·6H2O 50 mM.
The reaction system (taking a 500 µL system as an example) was composed of the following solution ratios: 416.5 µL phosphate buffer, 5 µL compound working solution, 25 µL liver microsomes, 3.5 µL glucose-6-phosphate dehydrogenase, and 50 µL cofactor solution. The total incubation volume could be adjusted according to experimental requirements.
416.5 µL of phosphate buffer was taken, 25 µL of liver microsomes, 3.5 µL of glucose-6-phosphate dehydrogenase, and 50 µL of cofactor solution were added, vortexed twice to mix, and preincubated in a 37°C water bath for 5 minutes. Then, 5 µL of the test compound working solution was added, vortexed twice to mix, each time for 2-3 seconds, and placed in a 37°C water bath to initiate the reaction, with two parallel samples set. At 0.5 min, 1 min, 2 min, 5 min, 15 min, and 30 min after the reaction, 50 µL of the mixture was taken and added to centrifuge tubes containing 200 µL of 0°C pre-cooled internal standard working solution to terminate the reaction, vortexed for 1 minute to mix, and centrifuged at 13,000 rpm for 10 minutes in a 4°C pre-cooled high-speed centrifuge. The supernatant was collected for analysis. After the compound was added and vortex-mixed, 50 µL of the mixture was rapidly transferred to a centrifuge tube containing 200 µL of a pre-cooled (0°C) internal standard working solution to terminate the reaction, vortex-mixed for 1 minute, and used as the relative zero-point sample (relative to the standard group). The sample was then placed into a 37°C water bath to initiate the reaction, and timing was started.
The sample analysis of the test compound was performed using the liquid chromatography-tandem mass spectrometry (LCMS/MS) method. The semi-quantitative determination was performed using the ratio of the analyte peak area to the internal standard peak area. The retention times of the analyte and internal standard, chromatogram acquisition, and chromatogram integration were processed using Analyst software.
The in vitro elimination rate constant k of the test compound and the control compound was determined by converting the ratio of the peak area of the test compound to the internal standard into the remaining rate, and T1/2 was then calculated according to the following formula. T1/2 = (Ln2)/(k) = (0.693)/(k) [formula] Table 3. […]

[5] = in vitro liver microsome metabolic stability, beagle dog; format: in vitro ADME; conditions: Beagle dog liver microsomes, 37°C
Procedure, shortened: as §1

[6] = in vivo pharmacokinetic study in SD rats; conditions: rat; for bioavailability: 1 mg/kg PO vs 1 mg/kg IV, read-out: Oral bioavailability F (%); for AUC(0-t) / Cmax / half-life: 1 mg/kg
Procedure, shortened: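 Male SD rats (180-200 g), 3 per route: single fasted oral gavage in 1% Tween 80 or tail-vein IV bolus in 50% PEG400. Orbital blood into EDTA-K2 sampled to 8 h; plasma analysed and PK parameters derived by non-compartmental analysis.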

Row | SMILES | IC50 [1] [nM] | Liver microsome T1-2 (min) Human [2] [min] | Liver microsome T1-2 (min) Rat [3] [min] | Liver microsome T1-2 (min) Mouse [4] [min] | Liver microsome T1-2 (min) Beagle dog [5] [min] | further results
1 | CN(C)C(=O)c1nccc(Nc2c(NC(c3nc(F)ccc3F)C3(C)CC(F)(F)CO3)c(=O)c2=O)c1O (centres unmarked) [compound 062, 4-((2-(((4,4-difluoro-2-methyltetrahydrofuran-2-yl)(3,6-difluoropyridin-2-yl)methyl)amino)-3,4-dioxocyclobut-1-en-1-yl)amino)-3-hydroxy-N,N-dimethylpicolinamide] | 32.9 | 1048.05 | 801.17 | 228.33 | 1250.74 | –
2 | CN(C)C(=O)c1nccc(Nc2c(NC(c3nc(Cl)ccc3F)C3(C)CC4CC4C3)c(=O)c2=O)c1O (centres unmarked) [compound 085, 4-((2-(((6-chloro-3-fluoropyridin-2-yl)(3-methylbicyclo[3.1.0]hexan-3-yl)methyl)amino)-3,4-dioxocyclobut-1-en-1-yl)amino)-3-hydroxy-N,N-dimethylpicolinamide] | 38 | 226.52 | 56.96 | 54.79 | 204.66 | –
3 | Cc1cc(F)cnc1[C@H](Nc1c(Nc2ccnc(C(=O)N(C)C)c2O)c(=O)c1=O)C1(C)CCCC1 [compound 065, (R)-4-((2-(((5-fluoro-3-methylpyridin-2-yl)(1-methylcyclopentyl)methyl)amino)-3,4-dioxocyclobut-1-en-1-yl)amino)-3-hydroxy-N,N-dimethylpicolinamide] | 3.9 | 197.68 | 39.70 | ≥120 | 200.21 | –
4 | CN(C)C(=O)c1nccc(Nc2c(N[C@@H](c3ccccn3)C3(C)CCCC3)c(=O)c2=O)c1O [compound 004, (R)-3-hydroxy-N,N-dimethyl-4-((2-(((1-methylcyclopentyl)(pyridin-2-yl)methyl)amino)-3,4-dioxocyclobut-1-en-1-yl)amino)picolinamide] | 12.3 | 672.88 | 90.26 | 6368.42 | 320.98 | –
5 | CN(C)C(=O)c1nccc(Nc2c(NC(c3nc(F)ccc3F)C3(C)CC4CC4C3)c(=O)c2=O)c1O (centres unmarked) [compound 126, 4-((2-(((3,6-difluoropyridin-2-yl)(3-methylbicyclo[3.1.0]hexan-3-yl)methyl)amino)-3,4-dioxocyclobut-1-en-1-yl)amino)-3-hydroxy-N,N-dimethylpicolinamide] | – | 531.62 | 58.22 | ≥120 | 331.52 | bioavailability ([6]; male, plasma): 26.9%; AUC(0-t) ([6]; male, plasma, IV): 1550 ng·h/mL; Cmax ([6]; male, plasma, IV): 3900 ng/mL; AUC(0-t) ([6]; male, plasma, PO): 417 ng·h/mL; Cmax ([6]; male, plasma, PO): 266 ng/mL
6 | Cc1cccnc1[C@@H](Nc1c(Nc2ccnc(C(=O)N(C)C)c2O)c(=O)c1=O)[C@@]1(C)CCC(F)(F)C1 [125C] | – | 343.09 | 32.18 | 550.74 | 222.01 | –
7 | CN(C)C(=O)c1nccc(Nc2c(NC(c3ncccn3)C3(C)CCCC3)c(=O)c2=O)c1O (racemic) [compound 017] | 10 | 1176.24 | 324.15 | 1273.80 | 848.60 | –
8 | CN(C)C(=O)c1nccc(Nc2c(N[C@@H](c3cc(F)cc(F)n3)C3(C)CCCC3)c(=O)c2=O)c1O [compound 022, (R)-4-((2-(((4,6-difluoropyridin-2-yl)(1-methylcyclopentyl)methyl)amino)-3,4-dioxocyclobut-1-en-1-yl)amino)-3-hydroxy-N,N-dimethylpicolinamide] | 7.4 | 271.15 | 116.86 | 1925.01 | 271.86 | –
9 | CN(C)C(=O)c1nccc(Nc2c(NC(C#CC3CCC3)C3(C)CC(F)(F)CO3)c(=O)c2=O)c1O (centres unmarked) [compound 110] | – | 324.84 | 97.61 | 1846.01 | 369.92 | bioavailability ([6]; in vivo): 60.2%; AUC(0-t) ([6]; in vivo, IV): 739 ng·h/mL; Cmax ([6]; in vivo, IV): 3780 ng/mL; half-life ([6]; in vivo, IV): 17.4 min; AUC(0-t) ([6]; in vivo, PO): 444 ng·h/mL; Cmax ([6]; in vivo, PO): 268 ng/mL; half-life ([6]; in vivo, PO): 57.6 min
10 | CN(C)C(=O)c1nccc(Nc2c(N[C@@H](c3cccc(F)n3)C3(C)CCCC3)c(=O)c2=O)c1O [compound 002, (R)-4-((2-(((6-fluoropyridin-2-yl)(1-methylcyclopentyl)methyl)amino)-3,4-dioxocyclobut-1-en-1-yl)amino)-3-hydroxy-N,N-dimethylpicolinamide] | 7 | 281.53 | 85.28 | 1127.82 | 202.32 | –
